Laboratory results taken from ChEMBL document CHEMBL1152352, “Identification of a chromone-based retinoid containing a polyolefinic side chain via facile synthetic routes” (Bioorg Med Chem Lett, 2009).

Tests used:
[1] = biological target: T1, Retinoic acid receptor alpha (Homo sapiens, UniProt P10276); assay: Displacement of radioligand from RARalpha receptor
T1 sequence (P10276 whole entry): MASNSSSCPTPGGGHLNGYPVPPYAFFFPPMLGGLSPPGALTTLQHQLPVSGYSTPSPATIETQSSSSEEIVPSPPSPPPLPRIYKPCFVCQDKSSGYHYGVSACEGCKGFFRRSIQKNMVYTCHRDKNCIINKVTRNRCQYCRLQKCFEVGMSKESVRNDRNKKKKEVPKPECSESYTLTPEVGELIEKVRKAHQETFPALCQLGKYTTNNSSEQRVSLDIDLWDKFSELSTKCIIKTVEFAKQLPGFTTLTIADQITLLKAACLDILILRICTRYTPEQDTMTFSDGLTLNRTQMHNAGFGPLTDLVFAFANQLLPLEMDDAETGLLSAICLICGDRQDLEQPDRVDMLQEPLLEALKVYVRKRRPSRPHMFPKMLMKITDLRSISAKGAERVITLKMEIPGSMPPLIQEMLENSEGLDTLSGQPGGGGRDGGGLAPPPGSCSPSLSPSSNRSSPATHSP

[2] = biological target: T2, Retinoic acid receptor beta (Homo sapiens, UniProt P10826); assay: Displacement of radioligand from RARbeta receptor
T2 sequence (P10826 whole entry): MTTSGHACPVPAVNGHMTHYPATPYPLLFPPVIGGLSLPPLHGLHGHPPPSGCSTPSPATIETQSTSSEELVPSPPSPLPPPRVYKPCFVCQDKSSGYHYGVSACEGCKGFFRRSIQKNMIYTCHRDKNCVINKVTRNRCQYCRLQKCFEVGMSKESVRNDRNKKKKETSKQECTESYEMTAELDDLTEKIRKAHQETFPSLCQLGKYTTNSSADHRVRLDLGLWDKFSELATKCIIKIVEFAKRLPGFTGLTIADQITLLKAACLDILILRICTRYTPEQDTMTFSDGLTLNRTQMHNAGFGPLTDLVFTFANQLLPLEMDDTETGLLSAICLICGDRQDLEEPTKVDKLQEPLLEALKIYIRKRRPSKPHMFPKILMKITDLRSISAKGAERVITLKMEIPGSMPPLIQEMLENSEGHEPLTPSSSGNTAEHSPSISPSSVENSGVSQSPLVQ

[3] = biological target: T3, Retinoic acid receptor gamma (Homo sapiens, UniProt P13631); assay: Displacement of radioligand from RARgamma receptor
T3 sequence (P13631 whole entry): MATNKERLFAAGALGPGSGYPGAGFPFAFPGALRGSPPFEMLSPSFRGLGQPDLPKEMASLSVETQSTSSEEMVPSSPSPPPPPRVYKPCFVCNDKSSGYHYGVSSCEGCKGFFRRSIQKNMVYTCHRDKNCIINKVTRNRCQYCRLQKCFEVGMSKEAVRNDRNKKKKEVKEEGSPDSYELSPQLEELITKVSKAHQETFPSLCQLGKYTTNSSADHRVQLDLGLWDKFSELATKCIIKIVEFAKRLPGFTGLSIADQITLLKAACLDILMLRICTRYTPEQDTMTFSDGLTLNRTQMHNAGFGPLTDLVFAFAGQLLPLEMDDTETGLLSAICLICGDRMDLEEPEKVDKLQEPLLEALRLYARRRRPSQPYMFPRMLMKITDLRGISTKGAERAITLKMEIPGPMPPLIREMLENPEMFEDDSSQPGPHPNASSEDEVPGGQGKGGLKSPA

- IC50 [1]: 15 nM
- IC50 [2]: 40 nM
- IC50 [3]: 40 nM
SMILES: CC(=C\c1coc2cc3c(cc2c1=O)C(C)(C)CCC3(C)C)/C=C(\C)C(=O)O
